Results: US7763578B2, “Preparation of polymeric foams using hydrofluoroether nucleating agents” (3M Innovative Properties Company, priority 2004, dated 2010)

Assay: Acute toxicity (acute lethal concentration in air)
Assay type: in vivo
Details: 10,000 ppm is its saturated concentration in air at room temperature
Source text: In addition to providing useful performance as nucleating agents, the segregated ethers useful herein can offer additional important benefits in safety of use and in environmental compatibility (e.g., zero ozone depletion potential and low atmospheric lifetime). For example, 3M NOVEC Brand HFE-7500 has low acute toxicity (its acute lethal concentration is greater than 10,000 ppm which is its saturated concentration in air at room temperature). […] Further, polymeric foams produced in accordance with the invention have excellent thermal insulation properties.

CCOC(F)(C(F)(F)C(F)(F)C(F)(F)F)C(F)(C(F)(F)F)C(F)(F)F (stereo not shown) [3M NOVEC Brand HFE-7500, C3F7CF(OC2H5)CF(CF3)2]
acute lethal concentration: greater than 10,000 ppm
